Reference: ChEMBL document CHEMBL3885861, “Open TG-GATES”

Species: Rattus norvegicus
Assay: Open TG-GATES - Regimen: Single
Assay type: toxicity, organism-based, Sprague-Dawley
Parameters: regimen Single, gender Male, age 6 weeks
Settings: in vivo, po, route gavage; for APTT / Bas / Eos / Fbg / Hb / Ht / Lym / MCHC / MCV / Mono / PT / Plat / RBC / Ret / WBC: tissue Blood; for KIDNEY_L / KIDNEY_R / KIDNEY_TOTAL: tissue Kidney; for LIVER: tissue Liver; for ALP / ALT / AST / BUN / CRE / Ca / Cl / DBIL / IP / LDH / Na / PL / RALB / TBIL / TC / TG / TP / gamma-GTP: tissue Plasma
[1] = 0 mg/kg, 3 h, dose level Control
[2] = 0 mg/kg, 6 h, dose level Control
[3] = 0 mg/kg, 9 h, dose level Control
[4] = 0 mg/kg, 24 h, dose level Control

Structure (SMILES): CC(C)N(CCC(C(N)=O)(c1ccccc1)c1ccccn1)C(C)C (centres undefined) [DISOPYRAMIDE]
- TERMINAL_BW [1]: 207.1 g
- APTT [1]: 21.7 s
- Bas [1]: 0%
- Eos [1]: 1%
- Fbg [1]: 318.8 mg/dL
- Hb [1]: 13.2 g/dL
- Ht [1]: 41.1%
- Lym [1]: 77.6%
- MCHC [1]: 32.1%
- MCV [1]: 64.4 fL
- Mono [1]: 2.6%
- PT [1]: 15.8 s
- Plat [1]: 117.3 x10_4/uL
- RBC [1]: 638.6 x10_4/ul
- Ret [1]: 8%
- WBC [1]: 84.7 x10_2/uL
- KIDNEY_L [1]: 0.9 g
- KIDNEY_R [1]: 0.9 g
- KIDNEY_TOTAL [1]: 1.9 g
- LIVER [1]: 9.6 g
- ALP [1]: 1747.4 IU/L
- ALT [1]: 51 IU/L
- AST [1]: 79.8 IU/L
- BUN [1]: 12.4 mg/dL
- CRE [1]: 0.2 mg/dL
- Ca [1]: 10.5 mg/dL
- Cl [1]: 108.2 meq/L
- DBIL [1]: 0 mg/dL
- IP [1]: 8.5 mg/dL
- LDH [1]: 193.8 IU/L
- Na [1]: 141.8 meq/L
- PL [1]: 122.6 mg/dL
- RALB [1]: 2.9 g/dL
- TBIL [1]: 0.006 mg/dL
- TC [1]: 69 mg/dL
- TG [1]: 45.4 mg/dL
- TP [1]: 5.4 g/dL
- gamma-GTP [1]: 1.4 IU/L
- TERMINAL_BW [2]: 210.2 g
- APTT [2]: 22.4 s
- Bas [2]: 0%
- Eos [2]: 0.4%
- Fbg [2]: 310.2 mg/dL
- Ht [2]: 39.9%
- Lym [2]: 80.8%
- MCHC [2]: 32%
- MCV [2]: 64.8 fL
- Mono [2]: 2.6%
- PT [2]: 15.7 s
- Plat [2]: 122.8 x10_4/uL
- RBC [2]: 615.4 x10_4/ul
- Ret [2]: 7.8%
- WBC [2]: 110.6 x10_2/uL
- KIDNEY_L [2]: 1 g
- KIDNEY_R [2]: 1 g
- KIDNEY_TOTAL [2]: 1.9 g
- LIVER [2]: 9.3 g
- ALT [2]: 42.4 IU/L
- AST [2]: 73.2 IU/L
- BUN [2]: 13 mg/dL
- CRE [2]: 0.1 mg/dL
- Ca [2]: 10.8 mg/dL
- Cl [2]: 105.6 meq/L
- DBIL [2]: 0 mg/dL
- IP [2]: 9.3 mg/dL
- LDH [2]: 164.8 IU/L
- Na [2]: 140.6 meq/L
- PL [2]: 135 mg/dL
- RALB [2]: 2.9 g/dL
- TBIL [2]: 0.004 mg/dL
- TC [2]: 72.6 mg/dL
- TG [2]: 91 mg/dL
- TP [2]: 5.5 g/dL
- gamma-GTP [2]: 1.2 IU/L
- TERMINAL_BW [3]: 204.9 g
- APTT [3]: 22.5 s
- Bas [3]: 0%
- Eos [3]: 0.4%
- Fbg [3]: 300.8 mg/dL
- Hb [3]: 12.9 g/dL
- Ht [3]: 40%
- Lym [3]: 80.6%
- MCHC [3]: 32.3%
- MCV [3]: 62.7 fL
- Mono [3]: 2.6%
- PT [3]: 15.9 s
- Plat [3]: 113.2 x10_4/uL
- RBC [3]: 638.2 x10_4/ul
- Ret [3]: 7.5%
- WBC [3]: 90.9 x10_2/uL
- KIDNEY_L [3]: 1 g
- KIDNEY_R [3]: 1 g
- KIDNEY_TOTAL [3]: 2 g
- LIVER [3]: 8.8 g
- ALP [3]: 1336.4 IU/L
- ALT [3]: 41.6 IU/L
- AST [3]: 72.8 IU/L
- BUN [3]: 13.4 mg/dL
- CRE [3]: 0.1 mg/dL
- Ca [3]: 10.5 mg/dL
- Cl [3]: 106.6 meq/L
- DBIL [3]: 0.002 mg/dL
- IP [3]: 9.2 mg/dL
- LDH [3]: 146.8 IU/L
- Na [3]: 141.6 meq/L
- PL [3]: 116.8 mg/dL
- RALB [3]: 2.9 g/dL
- TBIL [3]: 0.002 mg/dL
- TC [3]: 62.4 mg/dL
- TG [3]: 61.4 mg/dL
- TP [3]: 5.4 g/dL
- gamma-GTP [3]: 1.2 IU/L
- TERMINAL_BW [4]: 222.5 g
- APTT [4]: 21.9 s
- Bas [4]: 0%
- Eos [4]: 1%
- Fbg [4]: 317 mg/dL
- Hb [4]: 13.2 g/dL
- Ht [4]: 40.9%
- Lym [4]: 82.6%
- MCHC [4]: 32.3%
- MCV [4]: 65 fL
- Mono [4]: 2.4%
- PT [4]: 16 s
- Plat [4]: 117 x10_4/uL
- RBC [4]: 629.4 x10_4/ul
- Ret [4]: 7.9%
- WBC [4]: 80.5 x10_2/uL
- KIDNEY_L [4]: 1 g
- KIDNEY_R [4]: 1 g
- KIDNEY_TOTAL [4]: 2 g
- LIVER [4]: 10.6 g
- ALP [4]: 1631 IU/L
- ALT [4]: 53.6 IU/L
- AST [4]: 78.6 IU/L
- BUN [4]: 17 mg/dL
- CRE [4]: 0.2 mg/dL
- Ca [4]: 10.7 mg/dL
- Cl [4]: 105 meq/L
- DBIL [4]: 0 mg/dL
- IP [4]: 7.8 mg/dL
- LDH [4]: 192.4 IU/L
- PL [4]: 143.2 mg/dL
- RALB [4]: 3 g/dL
- TBIL [4]: 0 mg/dL
- TC [4]: 71.8 mg/dL
- TG [4]: 104 mg/dL
- TP [4]: 5.5 g/dL
- gamma-GTP [4]: 2 IU/L
- TERMINAL_BW (40 mg/kg, 3 h, dose level Low): 208.4 g
- APTT (40 mg/kg, 3 h, dose level Low): 23 s
- Bas (40 mg/kg, 3 h, dose level Low): 0%
- Eos (40 mg/kg, 3 h, dose level Low): 1%
- Fbg (40 mg/kg, 3 h, dose level Low): 313.4 mg/dL
